Data published in PMC7597557 (PLoS Pathogens, 2020).
Peptide text beside a SMILES is read from it.

Key:
H-2 K^b = target: T1, H-2 K^b (Mus musculus, UniProt P01901); assay: RMA-S K^b stabilization assay
T1 sequence (P01901 22-369): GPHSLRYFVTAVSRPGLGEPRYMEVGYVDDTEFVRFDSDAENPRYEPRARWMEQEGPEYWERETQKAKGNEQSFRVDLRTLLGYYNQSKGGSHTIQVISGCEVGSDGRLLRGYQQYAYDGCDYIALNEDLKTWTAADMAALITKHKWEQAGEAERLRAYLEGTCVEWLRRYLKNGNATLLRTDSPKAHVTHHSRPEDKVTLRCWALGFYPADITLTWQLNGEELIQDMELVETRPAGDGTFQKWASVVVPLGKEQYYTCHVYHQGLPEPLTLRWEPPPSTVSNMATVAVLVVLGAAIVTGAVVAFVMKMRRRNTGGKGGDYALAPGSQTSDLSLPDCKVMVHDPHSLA
T1 sequence (P01887 21-119 partner): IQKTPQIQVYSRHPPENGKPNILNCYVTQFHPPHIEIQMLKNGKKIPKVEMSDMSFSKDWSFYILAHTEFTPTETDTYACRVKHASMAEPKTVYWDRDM
Protocol: Data was analyzed after normalization and modeling using ECAnything (Prism 8). […] (A) RMA-S K^b stabilization assay. Variant peptides were titrated, added to RMA-S cells, and the relative H-2 K^b surface expression (MFI) was determined by flow cytometry. […] Each assay was repeated 4 times.
Titrated (100uM to 1pM) were added to RMA-S cells (5x10^4/well) and cultured overnight at 27C in 5% CO2. The cells were the shifted to 37C for 1–2 hours, and then their surface expression of K^b was analyzed by flow cytometry.
Normalized and fitted data from Fig 6A.using the ECanything nonlinear regression model (Prism 8) to fit the curves. By setting F = 50, the IC50 was determined for each data set. The points are the experimental data, the solid lines are the fitted line, and the dashed lines are the 95% confidence intervals. This experiment was repeated four times with similar results.

[1] = C57BL/6J mice, 37C, up to 60 minutes

| Compound | IC50 (H-2 K^b) [µM] | further results |
| --- | --- | --- |
| CC[C@H](C)[C@H](N)C(=O)N[C@@H](CCSC)C(=O)N[C@@H](Cc1ccc(O)cc1)C(=O)N[C@@H](CC(N)=O)C(=O)N[C@@H](Cc1ccc(O)cc1)C(=O)N1CCC[C@H]1C(=O)N[C@H](C(=O)N[C@@H](CCSC)C(=O)O)[C@@H](C)O [A10T] (H-IMYNYPTM-OH) | 28.1 |  |
| CC[C@H](C)[C@H](N)C(=O)N[C@@H](CCSC)C(=O)N[C@@H](Cc1ccc(O)cc1)C(=O)N[C@@H](CC(N)=O)C(=O)N[C@@H](Cc1ccc(O)cc1)C(=O)N1CCC[C@H]1C(=O)N[C@H](C(=O)N[C@@H](CCSC)C(=O)O)C(C)C [A10V] (H-IMYNYPVM-OH) | 21.3 |  |
| CC[C@H](C)[C@H](N)C(=O)N[C@@H](CCSC)C(=O)N[C@@H](Cc1ccc(O)cc1)C(=O)N[C@@H](CC(N)=O)C(=O)N[C@@H](Cc1ccc(O)cc1)C(=O)N1CCC[C@H]1C(=O)N[C@@H](C)C(=O)N[C@H](C(=O)O)[C@@H](C)CC [M11I] (H-IMYNYPAI-OH) | 29.1 |  |
| CC[C@H](C)[C@H](N)C(=O)N[C@@H](CCSC)C(=O)N[C@@H](Cc1ccc(O)cc1)C(=O)N[C@@H](CC(N)=O)C(=O)N[C@@H](Cc1ccc(O)cc1)C(=O)N[C@@H](CO)C(=O)N[C@@H](C)C(=O)N[C@@H](CCSC)C(=O)O [P9S] (H-IMYNYSAM-OH) | 59.3 |  |
| CC[C@H](C)[C@H](NC(=O)[C@@H](NC(=O)[C@@H](N)CO)[C@@H](C)CC)C(=O)N[C@@H](CC(N)=O)C(=O)N[C@@H](Cc1ccccc1)C(=O)N[C@@H](CCC(=O)O)C(=O)N[C@@H](CCCCN)C(=O)N[C@@H](CC(C)C)C(=O)O [reference compound] | 7.32 |  |
| IMANAPAM |  | Stabilization of K^b (in words) (H-2 K^b; RMA-S cells, surface K^b by flow cytometry, negative control peptide): failed to stabilize K^b |
| MSQIMYNYPTMLGHAGDMAGYAGTLQSLGAEIAV |  | cleaved bond [1]: Y21-A22 |
